Results from patent US8158811B2, “Unsaturated fatty hydroxy acid derivatives and the dermocosmetologic use thereof” (Pierre Fabre Dermo-Cosmetique, priority 2005, dated 2012).

Columns and labels:
prostaglandin 6KF1α = experiment: production of prostaglandin 6KF1α by keratinocytes stimulated with calcium ionophore A23187 (ELISA); type: cell-based; conditions: 3 μg/ml, A23187 1 μm 5 hours
Protocol: A suspension of keratinocytes in DMEM 10% foetal calf serum was divided into 6 well plates (1.2. 106cells/wells) and incubated for 16 hours at 37° C. in a 5% CO2 atmosphere. The keratinocytes were then rinsed with PBS in order to eliminate non adhering cells then exposed to the products to be tested included in DMEM without foetal calf serum (which could interfere with the assay).
The concentration tested in culture was 3 μg/ml. This was retained as the test concentration after a preliminary evaluation test for cytotoxicity (neutral red) and is not cytotoxic.
For each treatment, three wells were tested. Cells were pre-incubated for 60 minutes with the products to be tested then a stimulating agent was added to stimulate the arachidonic acid cascade (calcium ionophore) which was added for 5 hours: calcium ionophore A23187 was used at a concentration of 1 μm.
After 5 hours in culture, the culture medium for each well was recovered, centrifuged at 3000 rpm and stored at −80° C.
The production of prostaglandin 6KF1α for each of the tests was measured using a EUROMEDEX Elisa Kit.
Results are expressed as the percentage activity/stimulated control.

Interleukin 8 = experiment: release of Interleukin 8 by keratinocytes NHK stimulated with PMA + calcium ionophore A23187 (ELISA); type: cell-based, human; conditions: 3 μg/ml, keratinocytes, PMA + A23187 6 hours
Protocol: In this study, carried out using 96 well plates, we evaluated the activity of hydroxyl alkine acids on the production of Interleukin 8 produced in the keratinocytes by phorbol ester PMA and calcium ionophore A23187.
A suspension of keratinocytes in supplemented KSFM was divided between 96 well plates (3.10^4 cells/wells) and incubated for 16 hours at 37° C. under an atmosphere of 5% CO2. The keratinocytes were then rinsed with PBS in order to eliminate non adhering cells then exposed to the products to be tested included in non supplemented KSFM (which could interfere with the assay).
The concentration tested in culture was 3 μg/ml. This was retained after a preliminary test to evaluate cytotoxicity (neutral red) and is not cytotoxic.
3 wells were used for each treatment. Cells were preincubated for 60 minutes with the products to be tested then stimulated, in parallel to negative controls without stimulant: Phorbol Myristate Acetate (PMA) 1 μm+Calcium ionophore (A23187) 0.1 μm.
Incubation for 6 hours at 37° C. in a humid air atmosphere containing 5% CO2.
The culture medium for each of the wells was recovered, centrifuged at 3000 rpm and stored at −80° C.
Cytokine assay: IL8 was assayed using the ELISA kit immunoenzyme method (immunotech).
The results are given as percentage activity/stimulated control.
The compounds according to the invention were evaluated in terms of anti-inflammatory activity on the release of Interleukin 8 by human keratinocytes NHK stimulated by phorbol ester PMA+calcium ionophore A23187.

[1] = tested on: murine melanome cell line B16-F10; experiment: melanin synthesis, colorimetric assay, basal and after α-MSH; type: cell-based; conditions: Mus musculus, alpha MSH 1 μM, read-out: inhibition of alpha MSH activity (melanin increase)
Protocol: The modulating effect of unsaturated fatty hydroxy acid derivatives on melanogenesis was analysed. To do this, measurement of melanin synthesis by colorimetric assay was performed on a murine melanome cell line: line B16-F10.
The effect of products was investigated in a basal situation and after stimulation by α-MSH in order to determine depigmenting capacity.
Levels of extracellular and intracellular melanin were measured by spectrophotometry at a wavelength of 405 nm according to the protocol described by Anob et al., 1999. The amount of pigment was determined using a standard melanin range and analysis on Microwin software (Berthold Biotechnologies). A total protein assay was carried out for intracellular melanin samples by means of the BCA-Copper method at 540 nm. The standard range was made up using standard protein BSA (Bovine Serum Albumin).

Q: For O=C(O)C(F)=CCCCCCCCCCO [n=8, R=H, Rn=H, R1=F, 12-hydroxy-dodeca-2-fluoro-2-enoic acid], which “% inhibiting activity of evaluated molecules on the production of PG6KF1α Inflammation” value (prostaglandin 6KF1α) is on record?
A: 44%

Q: And the “% inhibition of IL-8 release” value (Interleukin 8)?
A: Non-active

Q: For Oc1ccc(O)cc1 [hydroquinone], which inhibition at 1 µg/mL ([1]; 1 μg/ml) is on record?
A: 60%

Q: How did the inhibition at 40 µg/mL ([1]; 40 μg/ml) turn out when O=C1O[C@H]([C@@H](O)CO)C(O)=C1O [vitamin C] was run?
A: 60%
